This note sets out measurements from ChEMBL document CHEMBL3808370, “Nortriketones: Antimicrobial Trimethylated Acylphloroglucinols from Ma̅nuka (Leptospermum scoparium)” (J Nat Prod, 2016).

In brackets after ≈: the same amount, converted by molar mass. Activity calls are given as the source filed them. The rule behind the calls is not given here.

Assay [1] concerns the target T1, 4-hydroxyphenylpyruvate dioxygenase (Arabidopsis thaliana, UniProt P93836).
T1 sequence (P93836 whole entry): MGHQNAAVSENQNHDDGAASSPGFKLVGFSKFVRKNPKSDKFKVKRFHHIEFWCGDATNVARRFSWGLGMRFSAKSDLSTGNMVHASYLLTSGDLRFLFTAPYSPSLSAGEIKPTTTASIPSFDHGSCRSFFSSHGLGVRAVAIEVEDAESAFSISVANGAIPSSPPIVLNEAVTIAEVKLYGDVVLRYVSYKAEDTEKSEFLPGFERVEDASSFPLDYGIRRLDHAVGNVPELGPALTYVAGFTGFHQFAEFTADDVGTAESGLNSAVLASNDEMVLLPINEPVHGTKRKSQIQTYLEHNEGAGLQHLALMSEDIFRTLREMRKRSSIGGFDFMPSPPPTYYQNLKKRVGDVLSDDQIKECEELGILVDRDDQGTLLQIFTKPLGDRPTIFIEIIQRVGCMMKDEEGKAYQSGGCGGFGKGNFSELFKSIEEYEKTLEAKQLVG
Briefly: Inhibition of recombinant Arabidopsis thaliana HPPD overexpressed in Escherichia coli JM105 cells using 4-HPP as substrate preincubated for 15 mins followed by substrate addition and subsequent incubation for 15 mins by HPLC analysis. The following applies: read-out: I50.

The subject of a further assay is Staphylococcus aureus. Briefly: Antibacterial activity against methicillin-resistant Staphylococcus aureus by two-fold broth dilution method. Type of assay: functional.
Another assay has as its system Enterococcus faecalis. Nature of the assay: Antibacterial activity against vancomycin-resistant Enterococcus faecalis incubated for 18 to 24 hrs by broth microdilution method. Type of assay: functional. (In general: Dilution methods test growth across graded concentrations, often in twofold steps.)
The next assay relates to Escherichia coli. Briefly: Antibacterial activity against Escherichia coli. Type of assay: functional.
Assay [2] concerns the target T2, 4-hydroxyphenylpyruvate dioxygenase (Arabidopsis thaliana) (UniProt P93836).
T2 sequence (whole entry): T1 sequence (P93836 whole entry)
Nature of the assay: Inhibition of recombinant Arabidopsis thaliana HPPD overexpressed in Escherichia coli JM105 cells at 100 uM using 4-HPP as substrate preincubated for 15 mins followed by substrate addition and subsequent incubation for 15 mins by HPLC analysis.

Consider `CC1(C)C(=O)C(C(=O)CCc2ccccc2)=C(O)C(C)(C)C1=O`, for which, in assay [1], the IC50 was determined as 750 nM. In addition, the results for the MIC against Staphylococcus aureus, against Enterococcus faecalis and in the assay with Escherichia coli were 6 µg/mL (≈ 19.1 µM), 6 µg/mL (≈ 19.1 µM) and above 512 µg/mL, respectively.
Consider `CC1=C(O)C(C)(C)C(=O)C(C(=O)C(C)C)=C1O`, for which the inhibition entry in assay [2] is “inactive”.
Take `CC1=C(O)C(C)(C)C(=O)C(C(=O)CCc2ccccc2)=C1O`: the inhibition entry in assay [2] is “inactive”. The results for the MIC in the assay with Staphylococcus aureus, in the assay on Enterococcus faecalis and with Escherichia coli were 64 µg/mL (≈ 213 µM), 64 µg/mL (≈ 213 µM) and above 512 µg/mL, respectively.
With `CC1=C(O)C(C)(C)C(=O)C(C(=O)CC(C)C)=C1O`, in assay [2], the inhibition result is “inactive”.
